{"source": "patent US6602525B1", "about": "(The Procter & Gamble Company, priority 2001, dated 2003)", "type_in_all_cases": "cell-based", "key": {"Proteus mirabilis": {"system": "Proteus mirabilis", "assay": "Checkerboard synergy test, nitrofurantoin and uva ursi", "conditions": "nitrofurantoin alone, P. mirabilis isolates 41-50", "source_text": "(§1) The checkerboard (or chessboard) method is used to assess the antimicrobial combination in vitro against the following selection of Gram-positive and Gram-negative pathogens including: Escherichia coli, Klebsiella pneumoniae, Proteus mirabilis, Serratia marcescens, Staphylococcus saprophyticus, Pseudomonas aeruginosa, and Enterococcus faecalis. […] Furthermore, the combination of nitrofurantoin and uva ursi is synergistic against four of the seven species tested, in particular E. coli, S. marcescens, P. mirabilis, and P. aeruginosa. […] [table] […] Following testing, the FIC index was calculated for each isolate panel to determine whether synergy, additivity, or antagonism occurred. […] For additivity, the FIC index is 1. For antagonism, the FIC index is 2."}, "[1]": {"system": "Staphylococcus saprophyticus", "assay": "Checkerboard synergy test, nitrofurantoin and uva ursi", "conditions": "nitrofurantoin alone, S. saprophyticus isolates 61-70", "source_text": "as §1"}, "Enterococcus faecalis [2]": {"system": "Enterococcus faecalis", "assay": "Checkerboard synergy test, nitrofurantoin and uva ursi", "conditions": "E. faecalis isolates 21-30", "source_text": "as §1"}, "Pseudomonas aeruginosa [3]": {"system": "Pseudomonas aeruginosa", "assay": "Checkerboard synergy test, nitrofurantoin and uva ursi", "conditions": "P. aeruginosa isolates 1-10", "source_text": "as §1"}, "Serratia marcescens": {"system": "Serratia marcescens", "assay": "Pre-test MIC, NCCLS microbroth dilution", "conditions": "nitrofurantoin alone, S. marcescens, one value per isolate (Isolate ID 11-20)", "experimental": "(§2) Methods for Dilution Antimicrobial Susceptibility Tests for Bacteria That Grow Aerobically; Approved Standard (Fifth Edition) (2000). These standards are as follows: [table] Nitrofurantoin was added to cation-adjusted Mueller-Hinton Broth (hereinafter “CAMHB”) and dissolved. […] The uva ursi extract was serially diluted in water. For each test concentration, the final dilution was performed in CAMHB providing dilutions of 1:20 to 1:2048."}, "[4]": {"system": "Staphylococcus saprophyticus", "assay": "Pre-test MIC, NCCLS microbroth dilution", "conditions": "nitrofurantoin alone, S. saprophyticus, one value per isolate (Isolate ID 61-70)", "experimental": "as §2"}, "Enterococcus faecalis [5]": {"system": "Enterococcus faecalis", "assay": "Pre-test MIC, NCCLS microbroth dilution", "conditions": "nitrofurantoin alone, E. faecalis, one value per isolate (Isolate ID 21-30)", "experimental": "as §2"}, "Pseudomonas aeruginosa [6]": {"system": "Pseudomonas aeruginosa", "assay": "Pre-test MIC, NCCLS microbroth dilution", "experimental": "as §2"}, "[7]": {"conditions": "checkerboard, nitrofurantoin alone"}}, "note": "Several values for one entry are separate records, joined by “and”; a condition that tells them apart may be missing. Equal values may be shown once."}
{"smiles": "O=C1CN(/N=C/c2ccc([N+](=O)[O-])o2)C(=O)N1", "note": "[Nitrofurantoin, N-(5-nitro-2-furfurylidene)-1-aminohydantoin]", "values": [{"measurement": "MIC Nitrofurantoin", "setting": "Proteus mirabilis", "value": 128, "unit": "µg/mL"}, {"measurement": "MIC Nitrofurantoin", "setting": "[1]", "value": 8, "unit": "µg/mL"}, {"measurement": "MIC", "setting": "Enterococcus faecalis [2]; Enterococcus faecalis, read-out: MIC Nitrofurantoin, checkerboard, nitrofurantoin alone", "value": 16, "unit": "µg/mL"}, {"measurement": "MIC Nitrofurantoin", "setting": "Enterococcus faecalis [2]; [7]", "value": 8, "unit": "µg/mL"}, {"measurement": "MIC", "setting": "Pseudomonas aeruginosa [3]; Pseudomonas aeruginosa, read-out: MIC Nitrofurantoin, checkerboard, nitrofurantoin alone", "value": "> 512", "unit": "µg/mL"}, {"measurement": "MIC Nitrofurantoin", "setting": "Pseudomonas aeruginosa [3]; [7]", "value": ">512 µg/mL and 512 µg/mL"}, {"measurement": "MIC Nitrofurantoin", "setting": "Serratia marcescens", "value": "64 to 512", "unit": "µg/mL"}, {"measurement": "MIC Nitrofurantoin", "setting": "[4]", "value": "8 to 32", "unit": "µg/mL"}, {"measurement": "MIC Nitrofurantoin", "setting": "Enterococcus faecalis [5]", "value": "8 to 64", "unit": "µg/mL"}, {"measurement": "MIC", "setting": "Pseudomonas aeruginosa [6]; Pseudomonas aeruginosa, read-out: Nitrofurantoin MIC", "value": "> 512", "unit": "µg/mL"}, {"measurement": "Nitrofurantoin MIC", "setting": "Pseudomonas aeruginosa [6]; pre-test, nitrofurantoin alone, P. aeruginosa, one value per isolate (Isolate ID 1-10)", "value": ">512", "unit": "µg/mL"}]}
